Columns and labels:
Neuro-2a cells = assay: Glutamate-induced Neuro-2a cell death (LDH release); format: cell-based, mouse
Method: Neuro-2a cells were seeded in 48-well culture plates (1.5×10^5 cells/well) for 24 h, and then cultured in 0.5 ml fresh 2% FBS-DMEM medium containing 20 μM of the present peptide (7 μg of 6-mer in 0.5 ml medium) for further 4 h. Subsequently, 100 mM glutamate (from 1 M stock and PBS as solvent) was added to cells for further 6 h. Glutamate-induced cell death was quantitatively assessed by measuring lactate dehydrogenase (LDH) activity released into the culture medium by damaged cells. LDH activity was measured using PicoProbe™ LDH-Cytotoxicity Fluorometric Assay Kit (Catalog #K314-500; BioVision) according to the instruction manuals. LDH activity was estimated using an automated microplate reader (UVmax; Molecular Devices, San Francisco, CA) by measuring the fluorescent product (Ex/Em=535/587 nm).
Briefly, cells were pretreated with the designated peptide (i.e., any of SEQ ID NOs: 2 to 11) for 4 h and then treated with 100 mM glutamate for 6 h. The cell death was detected by a commercial lactate dehydrogenase (LDH) Cytotoxicity Assay Kit. Results are depicted in FIG. 1.

[1] = test system: Sprague-Dawley rats, retinal ischemia/reperfusion (I/R) injury; assay: Retinal vasculature analysis (acellular capillaries) 14 days after I/R injury; format: in vivo; settings: rat
Method: Experimental procedures were approved by the Mackay Memorial Hospital Review Board (Taiwan, R.O.C.). All surgeries were performed under aseptic conditions. Adult 10-week-old male Sprague-Dawley rats (initial body weight=312±11 g) were anesthetized by an intraperitoneal injection of xylazine (10 mg/kg). Peptide was dissolved in 0.85% normal saline to 1 mM and delivered by the subconjunctival injection of 100 μL peptide through a 31-Gneedle with a micro-syringe before the induction of I/R. Normal saline was as a vehicle control. Rat I/R was performed after peptide or vehicle injection for 4 h. Pupils were dilated with 0.5% tropicamide and 0.5% phenylephrine. Body temperature was maintained at 37° C. using a heating blanket After dilation of the pupil, the anterior chamber of the right eye was cannulated with a 27-gauge needle connected to a physiological saline reservoir. The intraocular pressure (IOP) was raised to 110 mmHg by keeping the reservoir at 150 cm above the eye, and retinal ischemia was confirmed by observing whitening of the iris and the loss of the red reflex of the retina. After 90 min of ischemia, the cannulating needle was withdrawn and the IOP was returned to normal pressure, resulting in recovery of the blood supply from the retinal artery and reperfusion injury induced. The reperfusion was evident by the return of the red reflex. Corneal analgesia was achieved using 1 or 2 drops of 0.4% oxybuprocaine hydrochloride, and Ofloxacin ophthalmic gel (0.3%) was applied topically to the eye before and after the procedure. Only the right eye was used in all experiments. A sham procedure was performed at left eye served as an intra-animal control.
Rats (n=6 in each group) were euthanized using an overdose of pentobarbital at 14 days after I/R injury, the eyeballs were fixed with 4% PFA for overnight at 4° C. […] Ten sections per eye were averaged and the mean of six eyes was recorded as the representative value for each group.

[2] = test system: STZ-induced diabetic mice; assay: GFAP immunofluorescence staining of retina of STZ-induced diabetic mice; format: in vivo, mouse; settings: eye drop, 14 days after STZ injection, vehicle/STZ 24.3±2.7
Method: Deparaffinized retinal sections were blocked with 10% goat serum and 5% bovine serum albumin (BSA) in PBS containing 0.5% TritonX-100 (PBST) for 20 min at room temperature for blocking nonspecific staining. Staining was performed using primary antibodies against glial fibrillary acidic protein (GFAP) (1:100 dilution) or Iba-1 (1:100 dilution) at 37° C. for 3 h. The slides were subsequently incubated with the appropriate fluorescent-labeled secondary antibodies (1:500 dilution) at 37° C. for 1 h and then counterstained with Hoechst 33258 for 6 min. The slides were then rinsed with PBST three times, mounted with FluorSave™ reagent (Calbiochem) and viewed with an epifluorescence microscope (Zeiss Axioplan 2 imaging; Zeiss, Oberkochen, Germany) Three sections per eye were averaged and the mean of six eyes was recorded as the representative value for each group.
Diabetic mice were generated by intraperitoneal injection of streptozotocin (STZ; 200 mg/kg body weight) at day 1 and day 3. STZ was freshly prepared in 0.1 M citrate buffer (pH 4.5). After injection, mice were supplied with 10% sucrose overnight to prevent sudden hypoglycaemic shock. […] Vascular lesions in the retina was scored in all four retinal quadrants of flat mounts by an epifluorescence microscopy at 200×. […]

NH2-(D-Ser)-Leu-Gly-Ala-Glu-Gln-COOH (SLGAEQ; HELM PEPTIDE1{[dS].L.G.A.E.Q}$$$$V2.0; SMILES CC(C)C[C@H](NC(=O)[C@H](N)CO)C(=O)NCC(=O)N[C@@H](C)C(=O)N[C@@H](CCC(=O)O)C(=O)N[C@@H](CCC(N)=O)C(=O)O) [6-mer dS]
glutamate-induced cell death (LDH release into the medium) (Neuro-2a cells; Neuro-2a cells, 20 μM peptide pretreatment 4 h, then 100 mM glutamate 6 h, solvent/glutamate control 7.6±0.8%): 1.5±0.5% | protective effect on Neuro-2a cells (neuroprotective activity), in words (Neuro-2a cells; glutamate-induced cell death): exhibited protective effect on Neuro-2a cells | number of degenerate capillaries, in words ([1]; 14 days after I/R injury): The number of degenerate capillaries was reduced | Number of acellilar capillaries ([1]; 14 days post-ischemia, Vehicle + I/R 7.2 ± 0.9): 2.3 ± 0.7 /mm^2 | cytotoxic effect on retinal vasculature ([1]; sham testing in contralateral eye): had no cytotoxic effect on retinal vasculature | GFAP-positive astrocytes [2]: 11.0±1.4 numbers/400× field

Source: US12221494B2, “Short synthetic peptides and their uses for treating retinal degenerative diseases and/or tissue injuries” (MacKay Memorial Hospital, priority 2019, dated 2025)
